Columns and labels:
[1] = tested on: IMR-5 (Neuroblastoma); test: combination Emax (second highest fraction inhibited in the dose matrix, 72 h); higher = more inhibition; extreme values may be limits of the assay
Method in brief: (§1)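 Cell lines grown in DMEM/F12 or RPMI with 10% FBS were plated in 1536-well plates and held 24 hours at 37°C, 5% CO2 before 72 hours of exposure to two-drug dose matrices, with DMSO typically at 0.2%. CellTiter-Glo 2.0 luminescence gave viability, which was converted to inhibition. Vehicle wells were set to 0 and blank wells to 1. Combination Emax is the second-highest inhibition in the matrix, and Bliss excess is the observed combination effect minus the expected EA + EB − EA·EB, where EA and EB are the single-agent effects.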

[2] = tested on: PFSK-1 (Other Solid Carcinomas); test: as above
Method in brief: as §1

[3] = tested on: OCUM-1 (Gastric Carcinoma); test: as above
Method in brief: as §1

[4] = tested on: EW-13 (Ewing's Sarcoma); test: as above
Method in brief: as §1

[5] = tested on: VMRC-LCD (Lung Adenocarcinoma); test: as above
Method in brief: as §1

[6] = tested on: HuP-T3 (Pancreatic Carcinoma); test: as above
Method in brief: as §1

[7] = tested on: KP-2 (Pancreatic Carcinoma); test: as above
Method in brief: as §1

[8] = tested on: H-EMC-SS (Chondrosarcoma); test: as above
Method in brief: as §1

[9] = tested on: KLE (Endometrial Carcinoma); test: as above
Method in brief: as §1

[10] = tested on: KYSE-50 (Esophageal Squamous Cell Carcinoma); test: as above
Method in brief: as §1

[11] = tested on: PF-382 (T-Lymphoblastic Leukemia); test: as above
Method in brief: as §1

[12] = tested on: EBC-1 (Squamous Cell Lung Carcinoma); test: as above
Method in brief: as §1

[13] = tested on: GI-1 (Glioblastoma); test: as above
Method in brief: as §1

[14] = tested on: NCI-N87 (Gastric Carcinoma); test: Bliss excess, mean over the matrix (fraction); higher = more synergy
Method in brief: as §1

[15] = tested on: ASH-3 (Thyroid Gland Carcinoma); test: as above
Method in brief: as §1

[16] = tested on: LC4-1 (B-Lymphoblastic Leukemia); test: as above
Method in brief: as §1

[17] = tested on: PFSK-1 (Other Solid Carcinomas); test: as above
Method in brief: as §1

[18] = tested on: EW-13 (Ewing's Sarcoma); test: as above
Method in brief: as §1

[19] = tested on: NB7 (Neuroblastoma); test: as above
Method in brief: as §1

[20] = tested on: GI-1 (Glioblastoma); test: as above
Method in brief: as §1
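Wherever Bliss excess, mean over the matrix is given: after 72 h of two-drug dosing.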

| SMILES | combination Emax [1] | combination Emax [2] | combination Emax [3] | combination Emax [4] | combination Emax [5] | combination Emax [6] | combination Emax [7] | combination Emax [8] | combination Emax [9] | combination Emax [10] | combination Emax [11] | combination Emax [12] | combination Emax [13] | Bliss excess [14] | Bliss excess [15] | Bliss excess [16] | Bliss excess [17] | Bliss excess [18] | Bliss excess [19] | Bliss excess [20] |
| --- | --- | --- | --- | --- | --- | --- | --- | --- | --- | --- | --- | --- | --- | --- | --- | --- | --- | --- | --- | --- |
| COc1cccc(OCCCN)c1-c1cc(Nc2cnc(C#N)cn2)n[nH]1 [Prexasertib] + CCc1c2c(nc3ccc(O)cc13)-c1cc3c(c(=O)n1C2)COC(=O)[C@]3(O)CC [SN-38] (first compound max 1 µM, 7x7, partner max 0.3 µM) | 1 | 0.815 | 0.787 | 0.84 | 0.769 | 0.855 | 0.837 | 0.574 | 0.593 | 0.904 | 0.994 | 0.953 | 1 | -0.0787 | 0.0624 | -0.0868 | -0.0513 | -0.0697 | 0.0222 | 0.0188 |
| NC1(C(=O)N[C@@H](CCO)c2ccc(Cl)cc2)CCN(c2ncnc3[nH]ccc23)CC1 [Capivasertib] + CC(=O)c1c(C)c2cnc(Nc3ccc(N4CCNCC4)cn3)nc2n(C2CCCC2)c1=O [Palbociclib] (first compound max 10 µM, 7x7, partner max 10 µM) | 0.581 | 0.489 | 0.582 | 0.296 | 0.127 | 0.324 | 0.451 | 0.512 | 0.377 | 0.326 | 0.743 | 0.612 | 0.626 | -0.0066 | -0.0235 | 0.0772 | 0.0014 | -0.0161 | 0.0291 | 0.0117 |
| COc1nnc2ccc(N3CCC(c4ccc(OCCN5CCN(C)C(=O)[C@H]5C)cc4)CC3)nn12 [AZD5153] + CC1(C)CCC(CN2CCN(c3ccc(C(=O)NS(=O)(=O)c4ccc(NCC5CCOCC5)c([N+](=O)[O-])c4)c(Oc4cnc5[nH]ccc5c4)c3)CC2)=C(c2ccc(Cl)cc2)C1 [Venetoclax] (first compound max 1 µM, 7x7, partner max 1 µM) | 0.885 | 0.595 | 0.567 | 0.481 | 0.489 | 0.517 | 0.354 | 0.27 | 0.609 | 0.501 | 0.871 | 0.802 | 0.763 | -0.0978 | 0.0122 | -0.0482 | -0.0853 | 0.0173 | -0.0287 | 0.0247 |
| CN(CCO)CC[C@H](CSc1ccccc1)Nc1ccc(S(=O)(=O)NC(=O)c2ccc(N3CCC([C@@H](O)c4ccccc4-c4ccc(Cl)cc4)CC3)cc2)cc1S(=O)(=O)C(F)(F)F [AZD4320] + Cc1cc2ncnn2cc1Nc1ncc2c(n1)n(C1CCOCC1)c(=O)n2C [AZD7648] (first compound max 1 µM, 7x7, partner max 10 µM) | 0.738 | 0.397 | 0.744 | 0.672 | 0.0704 | 0.153 | 0.857 | 0.524 | 0.337 | 0.096 | 0.983 | 0.947 | 0.457 | -0.0695 | -0.0866 | 0.0066 | 0.0756 | -0.0223 | -0.0286 | 0.0161 |
| Cn1cnc2c(F)c(Nc3ccc(Br)cc3Cl)c(C(=O)NOCCO)cc21 [Selumetinib] + C[C@@H]1COCCN1C2=NC(=NC(=C2)C3(CC3)[S@](=N)(=O)C)C4=C5C=CNC5=NC=C4 [AZD6738] (first compound max 10 µM, 7x7, partner max 10 µM) | 1 | 0.595 | 0.951 | 0.623 | 0.732 | 0.517 | 0.483 | 0.296 | 0.442 | 0.573 | 0.912 | 0.934 | 0.781 | -0.0604 | 0.0892 | -0.0168 | -0.0535 | -0.0267 | -0.0257 | -0.0338 |
| CC1(C)CCC(CN2CCN(c3ccc(C(=O)NS(=O)(=O)c4ccc(NCC5CCOCC5)c([N+](=O)[O-])c4)c(Oc4cnc5[nH]ccc5c4)c3)CC2)=C(c2ccc(Cl)cc2)C1 [Venetoclax] + CN(C)CCCOc1ccc(-c2ccc3ncc4c(c3c2)n(C2CCOCC2)c(=O)n4C)cn1 [AZD0156] (first compound max 1 µM, 7x7, partner max 1 µM) | 0.0957 | 0.391 | 0.284 | 0.062 | 0.153 | 0.145 | 0.19 | 0.206 | 0.352 | 0.164 | 0.256 | 0.275 | 0.234 | -0.0763 | -0.0193 | 0.056 | 0.068 | -0.0351 | 0.0104 | 0.0106 |
| CN(CCO)CC[C@H](CSc1ccccc1)Nc1ccc(S(=O)(=O)NC(=O)c2ccc(N3CCC([C@@H](O)c4ccccc4-c4ccc(Cl)cc4)CC3)cc2)cc1S(=O)(=O)C(F)(F)F [AZD4320] + C=CCn1c(=O)c2cnc(Nc3ccc(N4CCN(C)CC4)cc3)nc2n1-c1cccc(C(C)(C)O)n1 [AZD1775] (first compound max 1 µM, partner max 1 µM) | 0.983 | 0.742 | 0.87 | 0.665 | 0.562 | 0.412 | 0.912 | 0.402 | 0.573 | 0.476 | 1 | 0.975 | 1 | 0.0086 | 0.0819 | 0.0369 | 0.0344 | 0.0172 | 0.0051 | 0.0542 |
| CC1(C)CCC(CN2CCN(c3ccc(C(=O)NS(=O)(=O)c4ccc(NCC5CCOCC5)c([N+](=O)[O-])c4)c(Oc4cnc5[nH]ccc5c4)c3)CC2)=C(c2ccc(Cl)cc2)C1 [Venetoclax] + CCN(CCO)CCCOc1ccc2c(Nc3cc(CC(=O)Nc4cccc(F)c4)[nH]n3)ncnc2c1 [AZD2811] (first compound max 1 µM, 7x7, partner max 1 µM) | 1 | 0.304 | 0.53 | 0.109 | 0.626 | 0.197 | 0.228 | 0.164 | 0.273 | 0.413 | 0.905 | 0.225 | 0.389 | -0.004 | -0.0166 | 0.0039 | 0.0663 | -0.0499 | 0.0098 | 0.0405 |
| Cn1cnc2c(F)c(Nc3ccc(Br)cc3Cl)c(C(=O)NOCCO)cc21 [Selumetinib] + CC(C)n1c(=O)n(C)c2cnc3cc(F)c(-c4ccc(OCCCN5CCCCC5)nc4)cc3c21 [AZD1390] (first compound max 10 µM, 7x7, partner max 0.3 µM) | 0.173 | 0.244 | 0.951 | 0.0488 | 0.15 | 0.368 | 0.463 | 0.197 | 0.178 | 0.21 | 0.211 | 0.934 | 0.216 | -0.0279 | -0.0553 | -0.0312 | -0.0492 | -0.0428 | -0.0326 | -0.0165 |
| NC1(C(=O)N[C@@H](CCO)c2ccc(Cl)cc2)CCN(c2ncnc3[nH]ccc23)CC1 [Capivasertib] + CC(C)n1c(=O)n(C)c2cnc3cc(F)c(-c4ccc(OCCCN5CCCCC5)nc4)cc3c21 [AZD1390] (first compound max 10 µM, 7x7, partner max 0.3 µM) | 0.161 | 0.462 | 0.571 | 0.28 | 0.0998 | 0.163 | 0.102 | 0.432 | 0.43 | 0.14 | 0.612 | 0.322 | 0.658 | -0.0223 | -0.0478 | 0.0461 | -0.0598 | -0.024 | 0.0125 | -0.0226 |
| CC1(C)CCC(CN2CCN(c3ccc(C(=O)NS(=O)(=O)c4ccc(NCC5CCOCC5)c([N+](=O)[O-])c4)c(Oc4cnc5[nH]ccc5c4)c3)CC2)=C(c2ccc(Cl)cc2)C1 [Venetoclax] + COc1cc(Nc2ncc3c(n2)-c2ccc(Cl)cc2C(c2c(F)cccc2OC)=NC3)ccc1C(=O)O [Alisertib] (first compound max 1 µM, 7x7, partner max 10 µM) | 1 | 0.477 | 0.51 | 0.294 | 0.619 | 0.337 | 0.267 | 0.658 | 0.635 | 0.537 | 0.905 | 0.436 | 0.506 | -0.0675 | 0.0145 | 0.0661 | 0.0652 | 0.0517 | -0.0193 | 0.0787 |
| CC1(C)CCC(CN2CCN(c3ccc(C(=O)NS(=O)(=O)c4ccc(NCC5CCOCC5)c([N+](=O)[O-])c4)c(Oc4cnc5[nH]ccc5c4)c3)CC2)=C(c2ccc(Cl)cc2)C1 [Venetoclax] + C1CN(CCC1(C(=O)N[C@@H](CCO)C2=CC=C(C=C2)Cl)N)C3=NC=NC4=C3C=CN4 [Capivasertib] (first compound max 1 µM, 7x7, partner max 3 µM) | 0.19 | 0.518 | 0.314 | 0.213 | 0.193 | 0.166 | 0.0692 | 0.413 | 0.315 | 0.17 | 0.518 | 0.317 | 0.412 | -0.0833 | -0.0554 | 0.0227 | 0.0634 | -0.0302 | -0.0301 | -0.0234 |

Reference: the supplement of paper PMC11061612
